US11275071B2, “Sensor dyes for real-time sensing of metal ions in aqueous environments” (UWM Research Foundation, Inc., priority 2015, dated 2022)
“Also recorded” adds a separate entry of the source. Read-outs that look alike come from different tables or passages of the source.

What was measured:
[1] = Response of QAR and PAR to metal ions at pH 7 (absorbance spectrum, colour); assay type: binding
Method: (§1) The response of QAR to different metal ions was measured to determine its selectivity and compared to another sensor (PAR), which has a similar structure. Samples were prepared with different metal standards at pH 7, and the absorbance spectrum of each sample was recorded (FIG. 6). Also, photographs of the samples are provided below to allow for a visual comparison (FIG. 7).
(§2) The spectra of QAR were compared to the spectrum of the free dyes, and the general response of QAR at pH 7 can be described as follows: […]

[2] = Protonation states of metal-QAR complexes; assay type: physicochemical; details: M(QAR)2H2 decomposition under acidic conditions, midpoint of species distribution curve
Method: (§3) The dissociation constant under acidic conditions and the pKA for the para-hydroxy group on the metal-QAR complexes was determined. A set of samples containing QAR and a single metal standard, were prepared in a pH buffer containing 2 mM Triton X-100 surfactant. […] The absorption spectrum of each sample was recorded with the Perkin-Elmer Lambda 650 spectrophotometer.
(§4) Analysis was performed in ReactLab Equilibria. The protonation of the para-hydroxy groups was modelled using the first reaction. Here, the pH micro-constants (stepwise protonation of each dye molecule in the complex) could not be resolved, so the two para-hydroxy groups in the complex were treated as both protonated or both deprotonated in the model. The decomposition of the complex under acidic conditions was modelled using the second reaction. M(QAR)2^2−+2H^+→M(QAR)2H2 M(QAR)2H2+2H^+→[…]+2H3QAR^+
The total uncertainty was estimated from the measurements involved in the experiment using rules of conventional error propagation (TABLE 7).

[3] = Response of QAR and PAR to metal ions at pH 7, overall comparison; assay type: binding
Method: as §1, §2

[4] = Decomposition of metal-QAR complexes under acidic conditions, overall; assay type: physicochemical
Method: as §3, §4
Decomposition of the metal-QAR complexes occurs below pH 3. The dissociation constant is different for each metal. For example, copper has the highest resistance and zinc has the lowest resistance to decomplexation under acidic conditions. Also, this trend [Cu(II)>Co(II)>Ni(II)>Zn(II)] matches the trend in the binding affinities, and the two effects may be related to the specific interactions that occur in the binding of each metal. […]

[5] = Protonation states of free QAR, pKA by absorption and ReactLab Equilibria (Example 29); assay type: physicochemical; details: free dye
Method: QAR has three protonation sites: The heterocyclic nitrogen in the quinoline moiety, and the para-hydroxyl group and the ortho-hydroxyl group in the resorcinol ring. The ortho-hydroxyl group is involved in binding with the metal.
The acid dissociation constants (pKA) and spectral profiles were determined for QAR. […] The data was analyzed using ReactLab Equilibria (JPlus Consulting Pty Ltd, Australia) to determine the resulting pKA values. QAR has three protonation sites, so four species were used for the analysis model. The pKA values were assigned using values from well-known molecules with a similar structure.
Error analysis was performed using the measurement uncertainties (pH meter and probe, temperature, etc.) and the conventional rules of error propagation. […] The total uncertainty was estimated from the error analysis (TABLE 5).

[6] = Formation and dissociation constants of QAR, titration with metal ion standard at pH 8.8; assay type: binding; details: for KF / KD: 1:2 complex; for KD: computed from formation constant; for log KF: M^2+ + 2HQAR^− → M(QAR)2^2− + 2H^+; for Kd: read-out: square root over (KD)
Method: The formation constants (KF) were determined for QAR and different metals. The relative binding affinities characterized the selectivity of the sensor, i.e. the sensor's preference for binding one metal over another. Also, the corresponding dissociation constants (KD) were computed from the formation constants. This metric yielded the lower performance limit of the sensor that is thermodynamically possible (for a given set of conditions), and it can provide the practical operating range of the sensor.
The absorbance spectra were recorded using a Perkin-Elmer Lambda 650 spectrophotometer while a QAR solution was titrated with a metal ion standard. Scout titrations were performed to obtain an estimate range for the KD. Then, the titration was performed with a sufficiently low initial dye concentration (approximately equal to the KD) for proper determination. Also, measurements were made using 10 cm longpath cuvettes. The increased pathlength compensated for the reduced dye concentration so measurements were made within the instrumental limitations (i.e. absorbance values greater than 0.05 absorbance units).
The dye solution was pH-buffered at such that only one protonated form of the free dye and complex is present. […] At pH 8.8, the following expression describes the metal-dye complex formation where HQAR^− predominates as the free dye and M(QAR)2^2 predominates as the metal complex, and minimal formation of metal hydroxides is expected. M^2++2HQAR^−→M(QAR)2^2−+2H^+
The data was analyzed in ReactLab Equilibria to determine the formation constant using the above model, and initial concentrations of HQAR and the respective metal. This software performs regression with the entire spectrum to calculate the formation constants specified in the model. Analysis was performed several times with different initial “guesses” for parameter values to ensure the algorithm yielded reproducible results.
The corresponding K values were calculated and are shown in the table below where the standard error from regression is given as the uncertainty values. The accuracy of the values is limited for cobalt and copper because the absorbance changes were too steep to properly capture the hyperbolic nature of the curve. And, the experimental conditions could not be adjusted to yield the same level of instrumental sensitivity and accuracy as the other metals. However, a relative comparison of the binding affinities is valid.

[7] = accuracy limited, with Co(II) ion
[8] = accuracy limited, with Cu(II) ion

Oc1ccc(N=Nc2ccccn2)c(O)c1 [PAR, 4-(2-pyridylazo)resorcinol, reference compound]
response to Ca(II) (spectrum compared to free dye, colour of complex) [1]: did not undergo a spectral change | response to Cd(II) (spectrum compared to free dye, colour of complex) [1]: orange complexes | response to Co(II) (spectrum compared to free dye, colour of complex) [1]: magenta complex | response to Cu(II) (spectrum compared to free dye, colour of complex) [1]: magenta complex | response to Fe(III) (spectrum compared to free dye, colour of complex) [1]: magenta complex; also recorded: Aggregation occurs | response to Hg(II) (spectrum compared to free dye, colour of complex) [1]: brown, globular suspension | response to K(I) (spectrum compared to free dye, colour of complex) [1]: did not undergo a spectral change | response to Mg(II) (spectrum compared to free dye, colour of complex) [1]: did not undergo a spectral change | response to Na(I) (spectrum compared to free dye, colour of complex) [1]: did not undergo a spectral change | response to Ni(II) (spectrum compared to free dye, colour of complex) [1]: orange complexes | response to Pb(II) (spectrum compared to free dye, colour of complex) [1]: magenta complex | response to Zn(II) (spectrum compared to free dye, colour of complex) [1]: orange complexes

Oc1ccc(N=Nc2cccc3cccnc23)c(O)c1 [QAR, 4-(quinolin-8-yldiazenyl)benzene-1,3-diol]
Acidic Dissociation ([2]; Co(II)-QAR complex): 1.593 | Acidic Dissociation ([2]; Cu(II)-QAR complex): 0.635 | Acidic Dissociation ([2]; Ni(II)-QAR complex): 2.455 | Acidic Dissociation ([2]; Zn(II)-QAR complex): 2.558 | response to Al(III) (spectrum compared to free dye, colour of complex) [1]: Weakly Sensitive | response to Ca(II) (spectrum compared to free dye, colour of complex) [1]: Insensitive; also recorded: did not undergo a spectral change | response to Cd(II) (spectrum compared to free dye, colour of complex) [1]: Weakly Sensitive | response to Co(II) (spectrum compared to free dye, colour of complex) [1]: Strongly Sensitive; also recorded: magenta complex | response to Cr(III) (spectrum compared to free dye, colour of complex) [1]: Insensitive | response to Cu(II) (spectrum compared to free dye, colour of complex) [1]: Strongly Sensitive; also recorded: orange complex | response to Fe(III) (spectrum compared to free dye, colour of complex) [1]: Severe aggregation; also recorded: does not appreciably complex; also recorded: Aggregation occurs | response to Hg(II) (spectrum compared to free dye, colour of complex) [1]: transparent complex | response to K(I) (spectrum compared to free dye, colour of complex) [1]: Insensitive; also recorded: did not undergo a spectral change | response to Mg(II) (spectrum compared to free dye, colour of complex) [1]: Insensitive; also recorded: did not undergo a spectral change | response to Mn(II) (spectrum compared to free dye, colour of complex) [1]: Weakly Sensitive; also recorded: does not appreciably complex | response to Na(I) (spectrum compared to free dye, colour of complex) [1]: Insensitive; also recorded: did not undergo a spectral change | response to Ni(II) (spectrum compared to free dye, colour of complex) [1]: Strongly Sensitive; also recorded: orange complex | response to Pb(II) (spectrum compared to free dye, colour of complex) [1]: Insensitive; also recorded: does not appreciably complex | response to Sn(II) (spectrum compared to free dye, colour of complex) [1]: Insensitive; also recorded: does not appreciably complex | response to Zn(II) (spectrum compared to free dye, colour of complex) [1]: Strongly Sensitive; also recorded: orange complex | binding selectivity compared with PAR [3]: higher binding selectivity | spectral sensitivity compared with PAR [3]: higher spectral sensitivity | trend of resistance to decomplexation under acidic conditions [4]: Cu(II)>Co(II)>Ni(II)>Zn(II) | pKa ([5]; site Quinoline N): 2.42 | pKa ([5]; site o-OH): 13 | pKA ([5]; site p-OH): 6.539 | pKa ([5]; site p-OH): 6.5 | KF [6, 7]: (1.86 ± 0.03) × 10^13 M^−2 | KF [6, 8]: (1.85 ± 0.40) × 10^16 M^−2 | KD [6, 7]: (5.30 ± 0.10) × 10^−14 M^2 | KD [6, 8]: (5.40 ± 1.15) × 10^−17 M^2 | KD ([6]; with Hg(II) ion): (1.03 ± 0.04) × 10^−13 M^2 | KD ([6]; with Ni(II) ion): (2.66 ± 0.06) × 10^−13 M^2 | KD ([6]; with Zn(II) ion): (3.24 ± 0.03) × 10^−13 M^2 | KF ([6]; with Hg(II) ion): (9.68 ± 0.45) × 10^12 M^−2 | KF ([6]; with Ni(II) ion): (3.76 ± 0.09) × 10^12 M^−2 | KF ([6]; with Zn(II) ion): (3.09 ± 0.05) × 10^12 M^−2 | log KF [6, 8]: 16.268 M^−2 | log KF ([6]; with Hg(II) ion): 12.986 M^−2 | log KF ([6]; with Ni(II) ion): 12.575 M^−2 | log KF ([6]; with Zn(II) ion): 12.490 M^−2 | Kd [6, 7]: 230 nM | Kd [6, 8]: 7.35 nM | Kd ([6]; with Hg(II) ion): 321 nM | Kd ([6]; with Ni(II) ion): 516 nM | Kd ([6]; with Zn(II) ion): 569 nM
